In the supplement of paper PMC10307832:

Key:
Test in all cases: relative viability (nuclei count vs DMSO), 5 days (fraction); higher = more cells survive
NCI-H1915 = tested on: NCI-H1915
In short: (§1)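 Medians of duplicate plates are given as relative viability. That measure is the nuclei count in treated wells divided by the count in vehicle wells. Counts were taken on 4× images of lung cancer cell lines in 1536-well plates, 5 days after pin-tool dosing the day after seeding with one drug alone or a fixed anchor-drug dose plus five library-drug doses (not always all listed) in √10 steps.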

PC-14 = tested on: PC-14
In short: as §1

HCC-366 = tested on: HCC-366
In short: as §1

LXF-289 = tested on: LXF-289
In short: as §1

HARA = tested on: HARA
In short: as §1

NCI-H1793 = tested on: NCI-H1793
In short: as §1

NCI-H2009 = tested on: NCI-H2009
In short: as §1

NCI-H1975 = tested on: NCI-H1975
In short: as §1

NCI-H2405 = tested on: NCI-H2405
In short: as §1

NCI-H460 = tested on: NCI-H460
In short: as §1

HCC-15 = tested on: HCC-15
In short: as §1

SK-LU-1 = tested on: SK-LU-1
In short: as §1

NCI-H441 = tested on: NCI-H441
In short: as §1

NCI-H3122 = tested on: NCI-H3122
In short: as §1

A-427 = tested on: A-427
In short: as §1

PC-3 [JPC-3] = tested on: PC-3 [JPC-3]
In short: as §1

NCI-H1755 = tested on: NCI-H1755
In short: as §1

UMC-11 = tested on: UMC-11
In short: as §1

NCI-H1437 = tested on: NCI-H1437
In short: as §1

H3255 = tested on: H3255
In short: as §1

NCI-H650 = tested on: NCI-H650
In short: as §1

NCI-H2023 = tested on: NCI-H2023
In short: as §1

O=C(O)CCCCC(CCSCc1ccccc1)SCc1ccccc1 (centres undefined) [CPI-613] + CC(=O)c1c(C)c2cnc(Nc3ccc(N4CCNCC4)cn3)nc2n(C2CCCC2)c1=O [Palbociclib] (partner 0.5 µM)
relative viability (NCI-H1915; first compound 5 µM): 0.5
relative viability (NCI-H1915; first compound 15.81 µM): 0.494
relative viability (NCI-H1915; first compound 50 µM): 0.506
relative viability (NCI-H1915; first compound 158.11 µM): 0.23
relative viability (NCI-H1915; first compound 500 µM): 0.0812
relative viability (PC-14; first compound 5 µM): 0.534
relative viability (PC-14; first compound 15.81 µM): 0.54
relative viability (PC-14; first compound 50 µM): 0.49
relative viability (PC-14; first compound 158.11 µM): 0.0565
relative viability (PC-14; first compound 500 µM): 0.0114
relative viability (HCC-366; first compound 5 µM): 0.354
relative viability (HCC-366; first compound 15.81 µM): 0.322
relative viability (HCC-366; first compound 50 µM): 0.336
relative viability (HCC-366; first compound 158.11 µM): 0.0258
relative viability (HCC-366; first compound 500 µM): 0.006
relative viability (LXF-289; first compound 5 µM): 0.561
relative viability (LXF-289; first compound 15.81 µM): 0.59
relative viability (LXF-289; first compound 50 µM): 0.558
relative viability (LXF-289; first compound 158.11 µM): 0.509
relative viability (LXF-289; first compound 500 µM): 0.393
relative viability (HARA; first compound 5 µM): 0.214
relative viability (HARA; first compound 15.81 µM): 0.26
relative viability (HARA; first compound 50 µM): 0.309
relative viability (HARA; first compound 158.11 µM): 0.198
relative viability (HARA; first compound 500 µM): 0.105
relative viability (NCI-H1793; first compound 5 µM): 0.269
relative viability (NCI-H1793; first compound 15.81 µM): 0.33
relative viability (NCI-H1793; first compound 50 µM): 0.258
relative viability (NCI-H1793; first compound 158.11 µM): 0.112
relative viability (NCI-H1793; first compound 500 µM): 0.0566
relative viability (NCI-H2009; first compound 5 µM): 0.229
relative viability (NCI-H2009; first compound 15.81 µM): 0.207
relative viability (NCI-H2009; first compound 50 µM): 0.221
relative viability (NCI-H2009; first compound 158.11 µM): 0.0593
relative viability (NCI-H2009; first compound 500 µM): 0.0128
relative viability (NCI-H1975; first compound 5 µM): 0.638
relative viability (NCI-H1975; first compound 15.81 µM): 0.645
relative viability (NCI-H1975; first compound 50 µM): 0.388
relative viability (NCI-H1975; first compound 158.11 µM): 0.562
relative viability (NCI-H1975; first compound 500 µM): 0.0655
relative viability (NCI-H2405; first compound 5 µM): 0.558
relative viability (NCI-H2405; first compound 15.81 µM): 0.499
relative viability (NCI-H2405; first compound 50 µM): 0.453
relative viability (NCI-H2405; first compound 158.11 µM): 0.167
relative viability (NCI-H2405; first compound 500 µM): 0.316
relative viability (NCI-H460; first compound 5 µM): 0.197
relative viability (NCI-H460; first compound 15.81 µM): 0.0984
relative viability (NCI-H460; first compound 50 µM): 0.0912
relative viability (NCI-H460; first compound 158.11 µM): 0.0107
relative viability (NCI-H460; first compound 500 µM): 0.0087
relative viability (HCC-15; first compound 5 µM): 0.649
relative viability (HCC-15; first compound 15.81 µM): 0.694
relative viability (HCC-15; first compound 50 µM): 0.681
relative viability (HCC-15; first compound 158.11 µM): 0.332
relative viability (HCC-15; first compound 500 µM): 0.126
relative viability (SK-LU-1; first compound 5 µM): 0.422
relative viability (SK-LU-1; first compound 15.81 µM): 0.392
relative viability (SK-LU-1; first compound 50 µM): 0.276
relative viability (SK-LU-1; first compound 158.11 µM): 0.32
relative viability (SK-LU-1; first compound 500 µM): 0.202
relative viability (NCI-H441; first compound 5 µM): 0.222
relative viability (NCI-H441; first compound 15.81 µM): 0.197
relative viability (NCI-H441; first compound 50 µM): 0.18
relative viability (NCI-H441; first compound 158.11 µM): 0.136
relative viability (NCI-H441; first compound 500 µM): 0.0142
relative viability (NCI-H3122; first compound 5 µM): 0.178
relative viability (NCI-H3122; first compound 15.81 µM): 0.198
relative viability (NCI-H3122; first compound 50 µM): 0.175
relative viability (NCI-H3122; first compound 158.11 µM): 0.155
relative viability (NCI-H3122; first compound 500 µM): 0.145
relative viability (A-427; first compound 5 µM): 0.519
relative viability (A-427; first compound 15.81 µM): 0.477
relative viability (A-427; first compound 50 µM): 0.486
relative viability (A-427; first compound 158.11 µM): 0.332
relative viability (A-427; first compound 500 µM): 0.384
relative viability (PC-3 [JPC-3]; first compound 5 µM): 0.559
relative viability (PC-3 [JPC-3]; first compound 50 µM): 0.512
relative viability (PC-3 [JPC-3]; first compound 158.11 µM): 0.265
relative viability (PC-3 [JPC-3]; first compound 500 µM): 0.263
relative viability (NCI-H1755; first compound 5 µM): 0.513
relative viability (NCI-H1755; first compound 15.81 µM): 0.432
relative viability (NCI-H1755; first compound 50 µM): 0.454
relative viability (NCI-H1755; first compound 158.11 µM): 0.448
relative viability (NCI-H1755; first compound 500 µM): 0.393
relative viability (UMC-11; first compound 5 µM): 0.346
relative viability (UMC-11; first compound 15.81 µM): 0.354
relative viability (UMC-11; first compound 50 µM): 0.323
relative viability (UMC-11; first compound 158.11 µM): 0.23
relative viability (UMC-11; first compound 500 µM): 0.216
relative viability (NCI-H1437; first compound 5 µM): 0.284
relative viability (NCI-H1437; first compound 15.81 µM): 0.281
relative viability (NCI-H1437; first compound 50 µM): 0.292
relative viability (NCI-H1437; first compound 158.11 µM): 0.0875
relative viability (NCI-H1437; first compound 500 µM): 0.026
relative viability (H3255; first compound 5 µM): 0.296
relative viability (H3255; first compound 15.81 µM): 0.302
relative viability (H3255; first compound 50 µM): 0.339
relative viability (H3255; first compound 158.11 µM): 0.328
relative viability (H3255; first compound 500 µM): 0.302
relative viability (NCI-H650; first compound 5 µM): 0.337
relative viability (NCI-H650; first compound 15.81 µM): 0.312
relative viability (NCI-H650; first compound 50 µM): 0.306
relative viability (NCI-H650; first compound 158.11 µM): 0.269
relative viability (NCI-H650; first compound 500 µM): 0.262
relative viability (NCI-H2023; first compound 5 µM): 0.335
relative viability (NCI-H2023; first compound 15.81 µM): 0.323
relative viability (NCI-H2023; first compound 50 µM): 0.35
relative viability (NCI-H2023; first compound 158.11 µM): 0.0317
relative viability (NCI-H2023; first compound 500 µM): 0.0063
